# Publication PMC5428509, “Irreversible inhibition of BTK kinase by a novel highly selective inhibitor CHMFL-BTK-11 suppresses inflammatory response in rheumatoid arthritis model” (Scientific Reports, 2017)
# What was measured:
# Experiment in all cases: biochemical
# Parameters in all cases: KinomeScan competition binding panel (DiscoveRx), percent of control at 1 uM
# Settings in all cases: read-out: Percent Control
# PFPK5(P.falciparum) = molecular target: T1, PFPK5(P.falciparum) (Plasmodium falciparum, UniProt P61075)
# T1 construct: gene CRK2
# T1 sequence (P61075 whole entry): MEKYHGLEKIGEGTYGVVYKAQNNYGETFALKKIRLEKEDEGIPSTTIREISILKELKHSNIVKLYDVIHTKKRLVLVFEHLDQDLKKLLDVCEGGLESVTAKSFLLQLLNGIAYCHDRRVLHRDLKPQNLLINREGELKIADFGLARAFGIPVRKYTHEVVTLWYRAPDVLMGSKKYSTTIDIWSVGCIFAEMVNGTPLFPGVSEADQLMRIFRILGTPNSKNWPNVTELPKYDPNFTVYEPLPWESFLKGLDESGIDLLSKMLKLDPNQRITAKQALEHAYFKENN
# PKNB(M.tuberculosis) = PKNB(M.tuberculosis) (Mycobacterium tuberculosis, UniProt P9WI81)
# PIK3CA(Q546K) = PIK3CA(Q546K) (Homo sapiens, UniProt P42336, Q546K)
# Sequence of PIK3CA(Q546K) (P42336 whole entry Q546K): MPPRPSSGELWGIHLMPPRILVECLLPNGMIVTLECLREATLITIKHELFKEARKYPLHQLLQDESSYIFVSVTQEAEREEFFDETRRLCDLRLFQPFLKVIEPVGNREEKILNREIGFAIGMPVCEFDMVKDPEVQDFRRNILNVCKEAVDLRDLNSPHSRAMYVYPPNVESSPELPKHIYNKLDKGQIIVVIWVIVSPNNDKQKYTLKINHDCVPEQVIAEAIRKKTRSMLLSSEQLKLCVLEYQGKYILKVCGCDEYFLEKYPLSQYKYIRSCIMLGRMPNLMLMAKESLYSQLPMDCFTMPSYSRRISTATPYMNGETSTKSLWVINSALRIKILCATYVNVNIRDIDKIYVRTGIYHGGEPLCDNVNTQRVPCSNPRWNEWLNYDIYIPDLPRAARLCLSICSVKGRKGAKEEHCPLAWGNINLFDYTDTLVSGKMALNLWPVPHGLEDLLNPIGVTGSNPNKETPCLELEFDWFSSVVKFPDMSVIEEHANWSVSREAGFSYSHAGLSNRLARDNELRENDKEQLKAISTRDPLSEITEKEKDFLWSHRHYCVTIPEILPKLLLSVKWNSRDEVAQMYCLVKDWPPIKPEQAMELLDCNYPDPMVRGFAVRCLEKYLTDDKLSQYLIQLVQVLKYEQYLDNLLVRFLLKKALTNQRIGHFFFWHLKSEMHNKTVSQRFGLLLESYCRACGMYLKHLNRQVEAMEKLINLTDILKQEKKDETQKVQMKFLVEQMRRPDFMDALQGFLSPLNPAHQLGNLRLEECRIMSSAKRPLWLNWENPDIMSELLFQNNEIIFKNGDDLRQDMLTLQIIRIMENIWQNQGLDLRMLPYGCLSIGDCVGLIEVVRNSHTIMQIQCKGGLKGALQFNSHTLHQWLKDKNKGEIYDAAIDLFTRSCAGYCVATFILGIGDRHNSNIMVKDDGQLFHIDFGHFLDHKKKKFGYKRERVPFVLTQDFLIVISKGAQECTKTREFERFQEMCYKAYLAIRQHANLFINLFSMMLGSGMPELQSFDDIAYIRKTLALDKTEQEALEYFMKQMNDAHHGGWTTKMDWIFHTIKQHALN
# Procedure, shortened: (§1)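 Selectivity profiled across 456 kinases/mutants by KinomeScan binding technology.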
# KIT(D816H) = KIT(D816H) (Homo sapiens, UniProt P10721, D816H)
# Procedure, shortened: as §1
# MERTK = MERTK (Homo sapiens, UniProt Q12866)
# Procedure, shortened: as §1
# MEK2 = molecular target: T2, MEK2 (Homo sapiens, UniProt P36507)
# T2 construct: gene MAP2K2
# Procedure, shortened: as §1
# FLT3(D835Y) = FLT3(D835Y) (Homo sapiens, UniProt P36888, D835Y)
# Procedure, shortened: as §1
# DCAMKL1 = molecular target: T3, DCAMKL1 (Homo sapiens, UniProt O15075)
# T3 construct: gene DCLK1
# T3 sequence (O15075 whole entry): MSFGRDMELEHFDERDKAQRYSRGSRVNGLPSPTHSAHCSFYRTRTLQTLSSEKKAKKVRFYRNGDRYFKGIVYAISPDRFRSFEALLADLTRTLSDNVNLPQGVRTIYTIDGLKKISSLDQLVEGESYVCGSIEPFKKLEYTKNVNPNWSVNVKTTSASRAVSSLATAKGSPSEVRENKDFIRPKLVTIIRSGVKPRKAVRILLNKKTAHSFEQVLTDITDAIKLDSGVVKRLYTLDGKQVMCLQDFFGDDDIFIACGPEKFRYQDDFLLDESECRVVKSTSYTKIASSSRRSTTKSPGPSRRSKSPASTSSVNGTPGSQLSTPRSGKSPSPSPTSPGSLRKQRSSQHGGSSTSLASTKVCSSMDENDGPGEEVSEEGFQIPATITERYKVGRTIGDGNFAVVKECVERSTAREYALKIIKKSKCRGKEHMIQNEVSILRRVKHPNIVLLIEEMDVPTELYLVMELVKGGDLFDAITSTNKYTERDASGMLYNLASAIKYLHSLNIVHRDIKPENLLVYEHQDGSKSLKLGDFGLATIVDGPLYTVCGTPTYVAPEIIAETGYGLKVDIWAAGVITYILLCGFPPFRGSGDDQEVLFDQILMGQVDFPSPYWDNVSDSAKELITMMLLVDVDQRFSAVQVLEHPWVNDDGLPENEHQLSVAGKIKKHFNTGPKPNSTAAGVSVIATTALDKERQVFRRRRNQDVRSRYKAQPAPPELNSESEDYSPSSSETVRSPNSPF
# Procedure, shortened: as §1
# ACVR2A = ACVR2A (Homo sapiens, UniProt P27037)
# Procedure, shortened: as §1
# RET(V804L) = RET(V804L) (Homo sapiens, UniProt P07949, V804L)
# Procedure, shortened: as §1
# STK33 = STK33 (Homo sapiens, UniProt Q9BYT3)
# Procedure, shortened: as §1
# PRKCI = PRKCI (Homo sapiens, UniProt P41743)
# Procedure, shortened: as §1
# EPHA5 = EPHA5 (Homo sapiens, UniProt P54756)
# Procedure, shortened: as §1
# DDR1 = DDR1 (Homo sapiens, UniProt Q08345)
# Procedure, shortened: as §1
# MET = MET (Homo sapiens, UniProt P08581)
# Sequence of MET (P08581 whole entry): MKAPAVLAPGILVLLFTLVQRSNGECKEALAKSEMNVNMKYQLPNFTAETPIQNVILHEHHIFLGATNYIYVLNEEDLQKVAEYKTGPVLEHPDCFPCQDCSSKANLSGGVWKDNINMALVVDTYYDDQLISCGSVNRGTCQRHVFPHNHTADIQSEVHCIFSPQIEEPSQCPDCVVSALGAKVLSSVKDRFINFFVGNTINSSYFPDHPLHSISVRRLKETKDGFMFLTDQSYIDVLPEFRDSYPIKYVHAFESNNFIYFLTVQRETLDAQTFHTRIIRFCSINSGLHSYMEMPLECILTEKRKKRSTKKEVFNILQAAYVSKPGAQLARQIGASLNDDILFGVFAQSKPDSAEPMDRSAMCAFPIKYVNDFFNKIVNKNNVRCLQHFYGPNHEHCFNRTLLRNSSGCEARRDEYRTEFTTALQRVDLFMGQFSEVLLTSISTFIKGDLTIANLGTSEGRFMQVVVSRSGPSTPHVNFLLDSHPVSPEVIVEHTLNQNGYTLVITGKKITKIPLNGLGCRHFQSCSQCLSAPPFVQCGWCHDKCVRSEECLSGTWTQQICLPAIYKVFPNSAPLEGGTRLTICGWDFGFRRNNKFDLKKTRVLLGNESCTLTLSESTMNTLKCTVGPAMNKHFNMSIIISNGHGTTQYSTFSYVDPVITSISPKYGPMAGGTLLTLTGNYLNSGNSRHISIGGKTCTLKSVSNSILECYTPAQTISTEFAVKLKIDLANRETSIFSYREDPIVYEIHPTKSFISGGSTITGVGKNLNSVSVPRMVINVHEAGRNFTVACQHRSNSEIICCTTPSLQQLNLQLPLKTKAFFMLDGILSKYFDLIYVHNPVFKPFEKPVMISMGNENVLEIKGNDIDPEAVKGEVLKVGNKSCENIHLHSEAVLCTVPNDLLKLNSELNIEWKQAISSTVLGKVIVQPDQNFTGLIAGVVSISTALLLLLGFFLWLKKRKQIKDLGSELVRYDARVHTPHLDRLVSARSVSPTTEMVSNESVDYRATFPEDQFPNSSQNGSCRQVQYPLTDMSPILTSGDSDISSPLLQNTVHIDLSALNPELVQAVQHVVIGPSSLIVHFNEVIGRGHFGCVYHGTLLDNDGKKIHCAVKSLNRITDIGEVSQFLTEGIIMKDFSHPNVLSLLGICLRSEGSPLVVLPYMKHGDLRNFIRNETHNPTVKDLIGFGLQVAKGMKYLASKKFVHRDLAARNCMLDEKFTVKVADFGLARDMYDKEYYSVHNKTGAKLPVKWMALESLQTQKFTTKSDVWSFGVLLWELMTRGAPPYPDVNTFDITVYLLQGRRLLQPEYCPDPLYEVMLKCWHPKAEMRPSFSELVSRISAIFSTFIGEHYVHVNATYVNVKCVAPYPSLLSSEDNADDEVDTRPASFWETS
# Procedure, shortened: as §1
# MKNK1 = MKNK1 (Homo sapiens, UniProt Q9BUB5)
# Sequence of MKNK1 (Q9BUB5 whole entry): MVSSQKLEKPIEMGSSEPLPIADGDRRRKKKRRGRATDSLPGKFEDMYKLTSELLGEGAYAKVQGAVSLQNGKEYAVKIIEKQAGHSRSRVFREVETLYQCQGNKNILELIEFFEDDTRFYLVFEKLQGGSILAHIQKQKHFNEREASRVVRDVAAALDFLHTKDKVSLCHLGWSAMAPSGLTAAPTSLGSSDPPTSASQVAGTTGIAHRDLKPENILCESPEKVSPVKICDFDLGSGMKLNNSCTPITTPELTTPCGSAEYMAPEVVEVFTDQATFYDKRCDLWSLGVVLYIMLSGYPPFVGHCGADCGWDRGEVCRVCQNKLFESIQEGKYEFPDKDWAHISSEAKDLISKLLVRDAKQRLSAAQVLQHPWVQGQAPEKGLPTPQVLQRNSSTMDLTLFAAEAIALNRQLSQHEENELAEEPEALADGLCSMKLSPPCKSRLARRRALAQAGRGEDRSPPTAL
# Procedure, shortened: as §1
# SIK2 = SIK2 (Homo sapiens, UniProt Q9H0K1)
# Procedure, shortened: as §1
# FAK = molecular target: T4, FAK (Homo sapiens, UniProt Q05397)
# T4 construct: gene PTK2
# Procedure, shortened: as §1
# [1] = molecular target: T5, RPS6KA4(Kin.Dom.2-C-terminal) (Homo sapiens, UniProt O75676)
# T5 construct: Kin.Dom.2-C-terminal
# Procedure, shortened: as §1
# MKNK2 = MKNK2 (Homo sapiens, UniProt Q9HBH9)
# Procedure, shortened: as §1
# AMPK-alpha1 = molecular target: T6, AMPK-alpha1 (Homo sapiens, UniProt Q13131)
# T6 construct: gene PRKAA1
# Procedure, shortened: as §1
# SIK = molecular target: T7, SIK (Homo sapiens, UniProt P57059)
# T7 construct: gene SIK1
# Procedure, shortened: as §1
# ABL1-phosphorylated = molecular target: T8, ABL1-phosphorylated (Homo sapiens, UniProt P00519)
# T8 construct: phosphorylated
# T8 sequence (P00519 whole entry): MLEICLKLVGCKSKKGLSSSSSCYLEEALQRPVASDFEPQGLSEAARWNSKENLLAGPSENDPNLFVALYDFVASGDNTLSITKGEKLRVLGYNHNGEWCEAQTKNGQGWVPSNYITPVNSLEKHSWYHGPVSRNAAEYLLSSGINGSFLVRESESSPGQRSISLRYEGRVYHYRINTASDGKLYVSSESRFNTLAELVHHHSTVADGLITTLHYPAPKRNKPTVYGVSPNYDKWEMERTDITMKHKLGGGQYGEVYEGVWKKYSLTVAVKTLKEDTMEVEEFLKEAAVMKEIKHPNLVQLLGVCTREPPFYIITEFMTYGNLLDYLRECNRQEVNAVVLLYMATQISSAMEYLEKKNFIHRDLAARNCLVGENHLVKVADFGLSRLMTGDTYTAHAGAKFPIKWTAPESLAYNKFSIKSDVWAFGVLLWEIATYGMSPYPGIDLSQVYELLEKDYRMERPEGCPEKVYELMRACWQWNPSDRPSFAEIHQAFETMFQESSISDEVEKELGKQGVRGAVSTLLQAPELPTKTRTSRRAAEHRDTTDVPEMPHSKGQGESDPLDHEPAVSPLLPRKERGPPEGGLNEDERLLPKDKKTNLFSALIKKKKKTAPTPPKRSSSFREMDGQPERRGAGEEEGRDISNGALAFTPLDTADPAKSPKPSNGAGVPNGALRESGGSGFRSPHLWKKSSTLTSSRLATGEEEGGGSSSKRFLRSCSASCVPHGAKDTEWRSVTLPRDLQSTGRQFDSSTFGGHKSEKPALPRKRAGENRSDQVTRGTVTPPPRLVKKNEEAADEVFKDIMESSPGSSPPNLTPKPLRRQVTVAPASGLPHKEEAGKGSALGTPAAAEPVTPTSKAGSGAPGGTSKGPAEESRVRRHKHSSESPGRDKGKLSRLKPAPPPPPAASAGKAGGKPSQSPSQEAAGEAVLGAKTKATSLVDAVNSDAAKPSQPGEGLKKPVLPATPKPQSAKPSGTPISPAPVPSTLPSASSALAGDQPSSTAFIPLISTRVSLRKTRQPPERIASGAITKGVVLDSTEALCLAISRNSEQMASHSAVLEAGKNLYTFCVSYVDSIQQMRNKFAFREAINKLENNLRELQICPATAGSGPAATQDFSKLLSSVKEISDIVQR
# Procedure, shortened: as §1
smiles,measurement,setting,value
C=CC(=O)Nc1cc(-n2c(=O)ccc3cnc4ccc(-n5cccn5)cc4c32)ccc1C [CHMFL-BTK-11],remaining binding at 1 µM,PFPK5(P.falciparum),100%
same,remaining binding at 1 µM,PKNB(M.tuberculosis),69%
same,remaining binding at 1 µM,PIK3CA(Q546K),97%
same,remaining binding at 1 µM,KIT(D816H),100%
same,remaining binding at 1 µM,MERTK,100%
same,remaining binding at 1 µM,MEK2,92%
same,remaining binding at 1 µM,FLT3(D835Y),100%
same,remaining binding at 1 µM,DCAMKL1,91%
same,remaining binding at 1 µM,ACVR2A,100%
same,remaining binding at 1 µM,RET(V804L),97%
same,remaining binding at 1 µM,STK33,89%
same,remaining binding at 1 µM,PRKCI,69%
same,remaining binding at 1 µM,EPHA5,100%
same,remaining binding at 1 µM,DDR1,100%
same,remaining binding at 1 µM,MET,100%
same,remaining binding at 1 µM,MKNK1,92%
same,remaining binding at 1 µM,SIK2,98%
same,remaining binding at 1 µM,FAK,100%
same,remaining binding at 1 µM,[1],100%
same,remaining binding at 1 µM,MKNK2,98%
same,remaining binding at 1 µM,AMPK-alpha1,100%
same,remaining binding at 1 µM,SIK,100%
same,remaining binding at 1 µM,ABL1-phosphorylated,78%
